The values below come from patent US10208015B2, “Aryl-triazolyl pyridines as pest control agents” (BAYER ANIMAL HEALTH GMBH, priority 2014, dated 2019).

Data set [1] in a line: logP by HPLC on reversed-phase column (C18), EEC Directive 79/831 Annex V.A8. The data set is classed as physicochemical. To be noted: HPLC, C18, acetonitrile (0.1% formic acid)/water (0.09% formic acid) gradient.
The test system of data set [2] is Boophilus microplus Parkhurst strain, SP-resistant. Put plainly: Boophilus microplus dip test. The data set is classed as in vivo. The following applies: application rate 100 ppm, assessed after 7 days. In outline: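 Engorged adult female SP-resistant Parkhurst-strain ticks, 8-10 per tube, were fully immersed in compound, with the DMSO solution diluted in water to the desired concentration. Efficacy was scored at 7 days by fertile egg laying, and unclear eggs were held until hatching at about 42 days. 100% means no fertile eggs and 0% means all eggs fertile.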

The test system of another data set is Boophilus microplus. Put plainly: Boophilus microplus injection test. The following applies: application rate 20 μg/animal, assessed after 7 days. The data set is classed as in vivo. How it is done:
Boophilus microplus—Injection Test • Solvent: dimethyl sulphoxide […] The animals are transferred into dishes and kept in a climate-controlled room. Efficacy is assessed after 7 days by laying of fertile eggs. Eggs which are not visibly fertile are stored in a climate-controlled cabinet until the larvae hatch after about 42 days.

A further data set has as its system Ctenocephalides felis. Nature of the data set: Ctenocephalides felis oral test. The data set is classed as in vivo. To be noted: application rate 100 ppm in citrated cattle blood, after 2 days. In outline:
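Compound in DMSO, diluted to test concentration in citrated cattle blood, was fed through a parafilm membrane from a metal cylinder. About 20 unfed adult cat fleas were held in a gauze-closed chamber beneath it.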

The subject of the next data set is Lucilia cuprina. Put plainly: Lucilia cuprina test. The data set is classed as in vivo. The following applies: application rate 100 ppm, L1 larvae, after 2 days. The procedure, abridged:
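About 20 L1 larvae of Lucilia cuprina are placed on minced horsemeat treated with compound (DMSO concentrate diluted in water to the test concentration). Kill is scored after 2 days, where 100% means all larvae dead and 0% none dead.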

In the next data set the test system is Musca domestica. Nature of the data set: Musca domestica test. Format: in vivo. To be noted: application rate 100 ppm, adult houseflies, after 2 days. In outline:
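Adult houseflies (10 per vessel) exposed to a sugar-solution-treated sponge carrying compound diluted in water from a DMSO concentrate at the desired concentration. Kill in % scored after 2 days; 100% = all flies dead, 0% = none.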

The test system of another data set is Myzus persicae. Put plainly: Myzus persicae spray test. The data set is classed as in vivo. The following applies: application rate 100 g/ha, after 6 days. The protocol:
Myzus Persicae—Spray Test […] To produce further test concentrations, the preparation is diluted with emulsifier-containing water. Discs of Chinese cabbage leaves (Brassica pekinensis) infested by all stages of the green peach aphid (Myzus persicae) are sprayed with an active compound preparation of the desired concentration.

The test system of another data set is Phaedon cochleariae. Put plainly: Phaedon cochleariae spray test. The data set is classed as in vivo. To be noted: application rate 100 g/ha, after 7 days. In outline: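 Compound dissolved in acetone/dimethylformamide and diluted with water containing 1000 ppm alkylaryl polyglycol ether emulsifier to the test concentrations. Efficacy scored after 7 days as % beetle larvae killed (100% all dead, 0% none).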

In a further data set the test system is Spodoptera frugiperda. Nature of the data set: Spodoptera frugiperda spray test. Format: in vivo. The following applies: application rate 100 g/ha, after 7 days. The protocol: Spodoptera Frugiperda—Spray Test
(§1) • Solvent: 78.0 parts by weight of acetone • 1.5 parts by weight of dimethylformamide • Emulsifier: alkylaryl polyglycol ether
To produce a suitable preparation of active compound, 1 part by weight of active compound is dissolved using the stated parts by weight of solvent and made up with water containing an emulsifier concentration of 1000 ppm until the desired concentration is attained. To produce further test concentrations, the preparation is diluted with emulsifier-containing water.
Leaf discs of maize (Zea mays) are sprayed with an active compound preparation of the desired concentration and, after drying, populated with caterpillars of the armyworm (Spodopterafrugiperda).
After 7 days, the efficacy in % is determined. 100% means that all the caterpillars have been killed; 0% means that no caterpillars have been killed.

In a further data set the test system is Tetranychus urticae. Put plainly: Tetranychus urticae spray test, OP-resistant. Format: in vivo. The following applies: application rate 100 g/ha, after 6 days. The protocol: Tetranychus Urticae—Spray Test, OP-Resistant
as §1
To produce further test concentrations, the preparation is diluted with emulsifier-containing water.
After 6 days, the efficacy in % is determined. 100% means that all the spider mites have been killed; 0% means that none of the spider mites have been killed.

The subject of data set [3] is Anopheles gambiae strain RSPH (homozygot kdr). To be noted: application rate 40 mg/m^2, exposure 30 minutes, 24 hours after contact.
Experimental: Anopheles Test (ANPHGB Surface Treatment)
(§2) • Solvent: acetone+2000 ppm rapeseed oil methyl ester (RME)
The exposure time is 30 minutes.
(§3) 24 hours after contact with the treated surface, mortality in % is determined. 100% means that all the mosquitoes have been killed; 0% means that none of the mosquitoes have been killed.
Data set [4] relates to Anopheles funestus strain FUMOZ-R. The following applies: application rate 40 mg/m^2, exposure 30 minutes, 24 hours after contact.
Experimental: Anopheles Test (ANPHFU Surface Treatment)
as §2
The exposure time is 30 minutes.
as §3

In data set [1], `O=C(NC1CC1)c1cc(-c2cn(-c3c(Cl)cc(C(F)(C(F)(F)F)C(F)(F)F)cc3C(F)(F)F)nn2)cnc1Cl` [Example 16] showed a logP of 4.0. The “efficacy (laying of fertile eggs)” value (in [2]; in the data set with Boophilus microplus) was 100% in each case. The “efficacy (kill in %)” value with Ctenocephalides felis, in the data set on Lucilia cuprina and with Musca domestica was 100% in each case. The efficacy in % in the data set with Myzus persicae came to 90%; in the data set on Phaedon cochleariae it was 100%; in the data set on Spodoptera frugiperda, 100%; in the data set on Tetranychus urticae it was 100%. Further, the “efficacy (mortality in %)” value in data set [3] and in [4] was 90-100% in each case.
